In patent US5041436A, “1-arylsulphonyl-2-piperidinone derivatives, process and intermediates for the preparation thereof, their application as antispasmodics and compositions containing them” (Roussel Uclaf, priority 1989, dated 1991):
Read-outs that look alike come from different tables or passages of the source.

Tests used:
[1] = system: isolated guinea pig ileum; assay: Agonist action on isolated guinea pig ileum; conditions: negative logarithm of the dose which produces 50% of maximum effect
Description: (§1) The interaction of the compounds with different receptors was assessed on isolated guinea pig ileum according to the following method.
(§2) Guinea pig ileum segments measuring 2.5-3 cm were washed and immediately suspended in a bath containing 10 ml of Tyrode's solution at 37° C. aerated with a mixture of oxygen (95%) and carbon dioxide (5%). After a stabilization period of at least 30 minutes, the contractions were recorded, maintaining the preparation under constant tension of 1 g using a gauge connected to a polygraph. The agonist action was assessed by leaving the compound in contact with the isolated tissue for a period necessary for expressing the maximal contraction; the preparation was then washed with Tyrode's solution. The next dose was added to the bath only after the preparation had returned to its base line. As a reference product, arecoline was employed. The antagonist action was assessed on contractions induced by acetyl choline (1×10^-6 M), histamine (1×10^-5 M) and barium chloride (2×10^-4 M). Atropine, diphenhydramine and papaverine were emplohyed as reference products. The contact time before adding the agonist was one minute.
(§3) For each compound, the dose-response curves are obtained with 4 to 6 different concentrations and 3 to 5 independent tests. The agonist activity is expressed by pD2 (negative logarithm of the dose which produces 50% of maximum effect). The antagonist activity is expressed by IC50 (concentration inhibiting 50% of the maximal response).

[2] = system: isolated guinea pig ileum, contractions induced by acetyl choline; assay: Antagonist action on contractions induced by acetyl choline, isolated guinea pig ileum; conditions: acetyl choline 1×10^-6 M; contact time one minute; 37° C.; read-out: Antagonist to different agents (IC50), ACh
Description: as §1, §2, §3

[3] = system: cholinomimetic effects induced by carbachol; assay: In vivo anticholinergic action: inhibition of cholinomimetic effects induced by carbachol in mice; parameters: species or system CD1 male mice; conditions: Mus musculus, ip; for ED (1 degree C): rectal temperature, read-out: Body temperature: dose increasing by 1° C. the hypothermic effect induced by the cholinergic agent
Description: The anticholinergic activity of the compounds was determined by assessing the capacity to inhibit the cholinomimetic effects induced by carbachol. Atropine sulphate was employed as a reference product.
CD1 male mice weighing 25 to 30 g were used. They were distributed in groups of 6 animals and treated intraperitoneally with scalar doses of the products or 0.25% Methocel for the controls. 12 animals were used for each dose. 30 minutes after administration of the compounds, the mice were injected subcutaneously with 1 mg/kg of carbachol dissolved in physiological saline.
Each animal was examined 30 minutes after the injection of carbachol to assess the presence of diarrhoea, salivation and eye watering; in addition, the body temperature was measured by means of a thermocouple inserted 1.5 cm into the rectum.
For each compound, we have determined and recorded in the following table the dose capable of inhibiting the appearance of the carbachol-induced cholinometric symptoms in 50% of the animals, and of increasing by 1° C. the hypothermic effect induced by the cholinergic agent.

[4] = biological target: T1, Muscarinic receptor 1 (Rattus norvegicus, UniProt P08482); assay: Binding to muscarinic receptor 1 ([^3 H]pirenzepine), rat cortex; conditions: for IC50: 0.25 nM [^3 H]pirenzepine, 60 minutes at 25° C., pH 7.4, rat cortex, read-out: Affinity for M1 muscarinic receptors, [^3 H]pirenzepine, IC50; for affinity for the muscarinic receptor (in words): summary of Table 1
T1 construct: cortices removed from the brains of male rats; from tissue; host or cells: rat brain cortex homogenate
T1 sequence (P08482 1-460): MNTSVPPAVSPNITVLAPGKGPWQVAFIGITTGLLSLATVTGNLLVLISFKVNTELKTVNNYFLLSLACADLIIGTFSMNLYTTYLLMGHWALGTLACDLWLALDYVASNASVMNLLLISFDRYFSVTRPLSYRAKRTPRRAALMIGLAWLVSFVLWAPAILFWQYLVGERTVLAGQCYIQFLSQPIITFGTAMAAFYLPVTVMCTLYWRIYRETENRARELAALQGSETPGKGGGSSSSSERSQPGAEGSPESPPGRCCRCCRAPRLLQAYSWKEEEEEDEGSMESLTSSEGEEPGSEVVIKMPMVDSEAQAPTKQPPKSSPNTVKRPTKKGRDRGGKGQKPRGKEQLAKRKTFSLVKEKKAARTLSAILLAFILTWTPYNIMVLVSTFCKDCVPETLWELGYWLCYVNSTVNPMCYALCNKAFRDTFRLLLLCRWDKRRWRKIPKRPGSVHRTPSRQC
Description: (§4) 1) Binding to different brain receptors.
Preparation of this is carried out from cortices removed from the brains of male rats weighing 150 to 200 g (Iffa Credo), ground in a Polytron in a 10 mM Na/K buffer pH 7.4. After incubation (0.5 ml aliquots of homogenate) for 60 minutes at 25° C. in the presence of 0.25 nM [^3 H]pirenzepine, either alone, or with the test product, or with an excess of 10^-5 M pirenzepine (to determine the non-specifically bound radioactivity), the incubates are cooled and filtered.
The filtration is performed on Whatman GF/C filters prewashed in a 0.05% strength solution of polyethylenimine. The filters are rinsed with 3×5 ml of 10 mM Na/K phosphate buffer pH 7.4 and the measurements are then performed by liquid scintillation.
(§5) The results are expressed as an IC50 (concentration needed to inhibit by 50% the specifically bound radioactivity).

[5] = biological target: Muscarinic receptor 2; assay: Binding to muscarinic receptor 2 ([^3 H]quinuclidinyl benzylate), rat brain; conditions: 0.3 nM [^3 H]quinuclidinyl benzylate, 60 minutes at 25° C., pH 7.5, rat brain; read-out: Affinity for M2 muscarinic receptors, [^3 H]quinuclidinyl benzylate, IC50
Description: as §4
The preparation is performed from brains of male rats weighing 150 to 200 g (Iffa Credo).
The brains are ground (Teflon-glass) in 0.32M sucrose solution. The homogenate is centrifuged for 10 minutes at 1,000 g (0°-4° C.)
The supernatant obtained is collected and centrifuged at 30,000 g for 15 minutes (0°-4° C.).
The regulus is resuspended in 50 mM Tris buffer pH 7.5 and the new homogenate is centrifuged again at 30,000 g for 15 minutes (0°-4° C.).
After removal of the supernatant, the regulus may be used immediately or stored for up to 1 month at -30° C.
For an experiment, the regulus are first thawed, if necessary, at room temperature and resuspended using a Dounce in 50 mM Tris buffer pH 7.5. 2 ml aliquots are incubated for 60 minutes at 25° C. in the presence of 0.3 nM [^3 H]quinuclidinyl benzylate, either alone, or with the test product, or with 10^-5 M benzatropine to determine the non-specifically bound radioactivity.
At the end of the incubation period, the incubate tubes are cooled to 4° C. and filtered rapidly on Whatman GF/C filters. The filters are rinsed with 3×5 ml of […] Tris buffer pH 7.5 and the measurements are then performed by liquid scintillation (Henry I. Yamamura, Solomon H. Snyder, Proc. Nat. Acad. Sc. (1974) 71, No. 5, 1725-1729).
as §5

[6] = biological target: dopamine receptors; assay: Binding to other brain receptors: dopamine; conditions: negligible affinity
From the text: as §4

[7] = biological target: histamine receptors; assay: Binding to other brain receptors: histamine; conditions: negligible affinity
From the text: as §4

[8] = biological target: serotonin 5-HT1 receptors; assay: Binding to other brain receptors: serotonin 5-HT1; conditions: negligible affinity
From the text: as §4

[9] = biological target: T2, serotonin 5-HT2 receptors (Homo sapiens, UniProt P28223); assay: Binding to other brain receptors: serotonin 5-HT2; conditions: negligible affinity
T2 construct: from tissue
From the text: as §4

[10] = biological target: benzodiazepines receptors; assay: Binding to other brain receptors: benzodiazepines; conditions: negligible affinity
From the text: as §4

[11] = biological target: GABA receptors; assay: Binding to other brain receptors: GABA; conditions: negligible affinity
From the text: as §4

[12] = biological target: adrenoreceptors alpha1; assay: Binding to other brain receptors: adrenoreceptor alpha1; conditions: negligible affinity
From the text: as §4

[13] = biological target: adrenoreceptors alpha2; assay: Binding to other brain receptors: adrenoreceptor alpha2; conditions: negligible affinity
From the text: as §4

[14] = biological target: T3, adrenoreceptors beta1 (Homo sapiens, UniProt P08588); assay: Binding to other brain receptors: adrenoreceptor beta1; conditions: negligible affinity
T3 construct: from tissue
From the text: as §4

[15] = biological target: T4, adrenoreceptors beta2 (Homo sapiens, UniProt P07550); assay: Binding to other brain receptors: adrenoreceptor beta2; conditions: negligible affinity
T4 construct: from tissue
From the text: as §4

[16] = biological target: T5, opiate receptors mu (Homo sapiens, UniProt P35372); assay: Binding to other brain receptors: opiate mu; conditions: negligible affinity
T5 construct: from tissue
From the text: as §4

[17] = biological target: T6, opiate receptors kappa (Homo sapiens, UniProt P41145); assay: Binding to other brain receptors: opiate kappa; conditions: negligible affinity
T6 construct: from tissue
From the text: as §4

[18] = system: isolated guinea pig ileum, contractions induced by histamine; assay: Antagonist action on contractions induced by histamine, isolated guinea pig ileum; conditions: histamine 1×10^-5 M; contact time one minute; 37° C.; read-out: Antagonist to different agents (IC50), Histam.
Description: as §1
as §2, with “Atropine, diphenhydramine and papaverine were emplohyed as reference products.” left out
as §3

[19] = system: isolated guinea pig ileum, contractions induced by barium chloride; assay: Antagonist action on contractions induced by barium chloride, isolated guinea pig ileum; conditions: barium chloride 2×10^-4 M; contact time one minute; 37° C.; read-out: Antagonist to different agents (IC50), BaCl2
Description: as §1, §2, §3

[20] = mice, i.p. 30 minutes before carbachol 1 mg/kg s.c., read-out: Dose inhibiting carbachol-induced diarrhoea in 50% of the animals
[21] = mice, i.p. 30 minutes before carbachol 1 mg/kg s.c., read-out: Dose inhibiting carbachol-induced eye watering in 50% of the animals
[22] = mice, i.p. 30 minutes before carbachol 1 mg/kg s.c., read-out: Dose inhibiting carbachol-induced salivation in 50% of the animals
[23] = mice, i.p. 30 minutes before carbachol 1 mg/kg s.c.

T2 sequence (P28223 whole entry): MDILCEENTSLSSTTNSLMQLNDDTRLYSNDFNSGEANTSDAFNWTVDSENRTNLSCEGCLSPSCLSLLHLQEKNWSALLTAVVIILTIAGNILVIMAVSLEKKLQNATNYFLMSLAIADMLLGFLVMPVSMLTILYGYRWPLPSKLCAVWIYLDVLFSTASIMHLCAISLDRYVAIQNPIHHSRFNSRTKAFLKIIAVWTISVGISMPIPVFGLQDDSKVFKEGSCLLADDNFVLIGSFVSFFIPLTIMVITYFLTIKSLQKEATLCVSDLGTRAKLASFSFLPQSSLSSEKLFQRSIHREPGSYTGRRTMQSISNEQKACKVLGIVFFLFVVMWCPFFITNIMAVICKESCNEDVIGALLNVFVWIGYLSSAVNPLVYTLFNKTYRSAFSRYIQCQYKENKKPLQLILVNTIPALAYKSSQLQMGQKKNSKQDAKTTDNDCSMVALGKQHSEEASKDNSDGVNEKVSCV
T5 sequence (P35372 whole entry): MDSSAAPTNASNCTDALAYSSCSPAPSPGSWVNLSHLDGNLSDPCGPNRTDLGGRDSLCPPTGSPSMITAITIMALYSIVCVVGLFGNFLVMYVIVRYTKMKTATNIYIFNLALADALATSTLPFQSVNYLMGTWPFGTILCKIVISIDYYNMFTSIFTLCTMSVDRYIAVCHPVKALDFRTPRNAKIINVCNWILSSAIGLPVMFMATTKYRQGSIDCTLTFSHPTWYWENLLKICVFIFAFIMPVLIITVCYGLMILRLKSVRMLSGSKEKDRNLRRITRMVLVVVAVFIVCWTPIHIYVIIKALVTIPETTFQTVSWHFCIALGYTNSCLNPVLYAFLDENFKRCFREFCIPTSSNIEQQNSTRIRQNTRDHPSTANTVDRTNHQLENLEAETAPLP
T4 sequence (P07550 whole entry): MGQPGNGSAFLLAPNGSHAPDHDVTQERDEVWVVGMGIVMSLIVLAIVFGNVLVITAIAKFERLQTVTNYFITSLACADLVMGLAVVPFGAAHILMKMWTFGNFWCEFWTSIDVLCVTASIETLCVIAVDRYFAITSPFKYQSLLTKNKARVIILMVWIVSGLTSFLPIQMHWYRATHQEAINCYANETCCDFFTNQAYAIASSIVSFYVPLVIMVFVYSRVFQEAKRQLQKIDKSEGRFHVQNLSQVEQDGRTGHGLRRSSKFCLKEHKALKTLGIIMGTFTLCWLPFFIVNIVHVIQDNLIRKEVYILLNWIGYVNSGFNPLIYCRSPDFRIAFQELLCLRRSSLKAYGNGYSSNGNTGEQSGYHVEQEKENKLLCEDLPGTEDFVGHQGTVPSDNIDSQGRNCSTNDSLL
T6 sequence (P41145 whole entry): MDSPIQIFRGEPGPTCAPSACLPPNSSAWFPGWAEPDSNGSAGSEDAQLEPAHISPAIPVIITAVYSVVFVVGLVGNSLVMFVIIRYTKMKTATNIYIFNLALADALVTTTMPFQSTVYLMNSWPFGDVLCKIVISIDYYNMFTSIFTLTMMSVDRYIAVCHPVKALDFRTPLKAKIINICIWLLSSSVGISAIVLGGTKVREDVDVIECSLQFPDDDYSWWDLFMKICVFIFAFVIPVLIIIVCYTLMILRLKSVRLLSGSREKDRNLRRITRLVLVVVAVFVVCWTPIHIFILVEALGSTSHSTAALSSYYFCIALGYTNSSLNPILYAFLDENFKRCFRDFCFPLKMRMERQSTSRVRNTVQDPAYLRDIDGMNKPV
T3 sequence (P08588 whole entry): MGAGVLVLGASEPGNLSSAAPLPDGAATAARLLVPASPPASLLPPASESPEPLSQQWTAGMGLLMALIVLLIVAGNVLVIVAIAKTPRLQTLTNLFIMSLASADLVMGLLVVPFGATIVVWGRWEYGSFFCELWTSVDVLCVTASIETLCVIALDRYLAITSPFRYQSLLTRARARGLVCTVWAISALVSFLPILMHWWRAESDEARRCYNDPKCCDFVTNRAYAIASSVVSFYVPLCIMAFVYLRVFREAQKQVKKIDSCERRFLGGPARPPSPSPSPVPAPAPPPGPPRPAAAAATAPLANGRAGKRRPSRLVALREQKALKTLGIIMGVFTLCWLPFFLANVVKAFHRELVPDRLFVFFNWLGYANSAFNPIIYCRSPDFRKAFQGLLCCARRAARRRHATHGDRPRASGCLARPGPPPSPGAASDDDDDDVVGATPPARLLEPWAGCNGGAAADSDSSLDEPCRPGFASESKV

Row | Compound | Agonist action pD2 [1] | IC50 [2] [µM] | IC50 [4] [µM] | affinity for the muscarinic receptor (in words) [4] | IC50 [5] [µM] | IC50 [6] [µM] | IC50 [7] [µM] | IC50 [8] [µM] | IC50 [9] [µM] | IC50 [10] [µM] | IC50 [11] [µM] | IC50 [12] [µM] | IC50 [13] [µM] | IC50 [14] [µM] | IC50 [15] [µM] | IC50 [16] [µM] | IC50 [17] [µM] | IC50 [18] [µM] | IC50 [19] [µM] | ED50 [3, 20] [mg/kg] | further results
1 | COC(=O)C1=CCCN(C)C1 [Arecoline, arecoline, reference compound] | 6.68 |  |  |  |  |  |  |  |  |  |  |  |  |  |  |  |  |  |  |  | 
2 | CN1[C@@H]2CC[C@H]1C[C@@H](OC(=O)C(CO)c1ccccc1)C2 (some centres unmarked) [Atropine, reference compound] |  | 0.0095 |  |  |  |  |  |  |  |  |  |  |  |  |  |  |  |  |  |  | ED50 ([3]; read-out: Dose inhibiting carbachol-induced diarrhoea in 50% of the animals): 0.04 mg/kg; ED50 ([3]; read-out: Dose inhibiting carbachol-induced eye watering in 50% of the animals): 0.05 mg/kg; ED50 ([3]; read-out: Dose inhibiting carbachol-induced salivation in 50% of the animals): 0.06 mg/kg
3 | CCN(CC)c1ccc(S(=O)(=O)N2CCCCC2=O)cc1 [Example 2, 1-[4-(Diethylamino)benzenesulphonyl]-2-piperidinone] | < 5 | 0.93 | 0.314 | noteworthy advantageous affinity for the muscarinic receptor, and mainly for the M1 type receptor | 4.6 | 5 to 10 | 5 to 10 | 5 to 10 | 5 to 10 | 5 to 10 | 5 to 10 | 5 to 10 | 5 to 10 | 5 to 10 | 5 to 10 | 5 to 10 | 5 to 10 | > 10 | > 10 | 5 | ED50 [3, 21]: > 50 mg/kg; ED50 [3, 22]: > 50 mg/kg; ED (1 degree C) [3, 23]: > 50 mg/kg
4 | O=C1CCCCN1S(=O)(=O)c1ccc(N2CCCCC2)cc1 [Example 4, 1-[4-(1-Piperidinyl)benzenesulphonyl] -2-piperidinone] | < 5 | 1.5 | 0.128 | noteworthy advantageous affinity for the muscarinic receptor, and mainly for the M1 type receptor | 2.24 | 5 to 10 | 5 to 10 | 5 to 10 | 5 to 10 | 5 to 10 | 5 to 10 | 5 to 10 | 5 to 10 | 5 to 10 | 5 to 10 | 5 to 10 | 5 to 10 | > 10 | > 10 | 6 | ED50 [3, 21]: > 50 mg/kg; ED50 [3, 22]: > 50 mg/kg; ED (1 degree C) [3, 23]: > 50 mg/kg
5 | O=C1CCCCN1S(=O)(=O)c1ccc(N2CCCCCC2)cc1 [Example 5, 1-[4-(1-Hexahydroazepinyl)benzenesulphonyl]-2-piperidinone] | < 5 | 0.27 | 0.049 | noteworthy advantageous affinity for the muscarinic receptor, and mainly for the M1 type receptor | 0.66 | 5 to 10 | 5 to 10 | 5 to 10 | 5 to 10 | 5 to 10 | 5 to 10 | 5 to 10 | 5 to 10 | 5 to 10 | 5 to 10 | 5 to 10 | 5 to 10 | > 10 | > 10 | 2 | ED50 [3, 21]: > 50 mg/kg; ED (1 degree C) [3, 23]: 50 mg/kg
6 | COc1ccc(Cc2nccc3cc(OC)c(OC)cc23)cc1OC [Papaverine, papaverine, reference compound] |  |  |  |  |  |  |  |  |  |  |  |  |  |  |  |  |  |  | 45 |  | 
